# Assays:
# Experiment in all cases: Radiometric kinase panel
# Assay type in all cases: biochemical
# MERTK = target: T1, MERTK (Homo sapiens, UniProt Q12866)
# T1 construct: either as full-length or enzymatically active fragments; purchased ProQinase GmbH (Reaction Biology)
# In short: (§1)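 Activity was measured radiometrically from [gamma-33P]-ATP incorporation into substrate. The kinases were recombinant human GST- or His-tagged proteins, full-length or active fragments, expressed in Sf9 or E. coli. Compound in 10% DMSO was added before the enzyme/substrate mix, which started the reaction.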
# ROCK2 = target: T2, ROCK2 (Homo sapiens, UniProt O75116)
# T2 construct: either as full-length or enzymatically active fragments; purchased ProQinase GmbH (Reaction Biology)
# In short: as §1
# CDK5/p35NCK = target: T3, CDK5/p35NCK (Homo sapiens, UniProt Q00535)
# T3 construct: either as full-length or enzymatically active fragments; purchased ProQinase GmbH (Reaction Biology)
# In short: as §1
# CDK8/CycC = target: T4, CDK8/CycC (Homo sapiens, UniProt P49336)
# T4 construct: either as full-length or enzymatically active fragments; purchased ProQinase GmbH (Reaction Biology)
# T4 sequence (P49336 whole entry, the tested form may be a part): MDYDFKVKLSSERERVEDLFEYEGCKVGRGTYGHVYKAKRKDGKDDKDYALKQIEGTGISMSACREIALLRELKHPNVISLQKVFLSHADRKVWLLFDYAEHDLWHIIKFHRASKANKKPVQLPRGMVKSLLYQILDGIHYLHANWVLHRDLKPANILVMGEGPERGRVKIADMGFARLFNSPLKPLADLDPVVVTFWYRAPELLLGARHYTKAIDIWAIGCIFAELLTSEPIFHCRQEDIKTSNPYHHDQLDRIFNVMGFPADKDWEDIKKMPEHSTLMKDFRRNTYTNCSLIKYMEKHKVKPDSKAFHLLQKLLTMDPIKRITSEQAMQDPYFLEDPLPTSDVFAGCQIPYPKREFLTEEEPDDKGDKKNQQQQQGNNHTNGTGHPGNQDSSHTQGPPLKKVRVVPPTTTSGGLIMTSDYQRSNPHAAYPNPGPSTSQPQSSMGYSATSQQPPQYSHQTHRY
# T4 sequence (P24863 whole entry partner, the tested form may be a part): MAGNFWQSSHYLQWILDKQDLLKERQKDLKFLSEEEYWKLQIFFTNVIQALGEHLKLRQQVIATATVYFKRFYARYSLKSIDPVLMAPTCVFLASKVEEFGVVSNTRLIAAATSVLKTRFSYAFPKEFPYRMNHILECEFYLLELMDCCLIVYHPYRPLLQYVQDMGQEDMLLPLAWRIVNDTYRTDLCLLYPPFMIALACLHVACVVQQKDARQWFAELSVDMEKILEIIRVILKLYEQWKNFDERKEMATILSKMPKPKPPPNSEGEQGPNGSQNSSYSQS
# In short: as §1
# SRMS = target: T5, SRMS (Homo sapiens, UniProt Q9H3Y6)
# T5 construct: purchased ProQinase GmbH (Reaction Biology)
# In short: as §1
# CDK19/CycC = target: T6, CDK19/CycC (Homo sapiens, UniProt Q9BWU1)
# T6 construct: either as full-length or enzymatically active fragments; purchased ProQinase GmbH (Reaction Biology); host or cells: Sf9 insect cells or E. coli (not specified per kinase)
# T6 sequence (Q9BWU1 whole entry, the tested form may be a part): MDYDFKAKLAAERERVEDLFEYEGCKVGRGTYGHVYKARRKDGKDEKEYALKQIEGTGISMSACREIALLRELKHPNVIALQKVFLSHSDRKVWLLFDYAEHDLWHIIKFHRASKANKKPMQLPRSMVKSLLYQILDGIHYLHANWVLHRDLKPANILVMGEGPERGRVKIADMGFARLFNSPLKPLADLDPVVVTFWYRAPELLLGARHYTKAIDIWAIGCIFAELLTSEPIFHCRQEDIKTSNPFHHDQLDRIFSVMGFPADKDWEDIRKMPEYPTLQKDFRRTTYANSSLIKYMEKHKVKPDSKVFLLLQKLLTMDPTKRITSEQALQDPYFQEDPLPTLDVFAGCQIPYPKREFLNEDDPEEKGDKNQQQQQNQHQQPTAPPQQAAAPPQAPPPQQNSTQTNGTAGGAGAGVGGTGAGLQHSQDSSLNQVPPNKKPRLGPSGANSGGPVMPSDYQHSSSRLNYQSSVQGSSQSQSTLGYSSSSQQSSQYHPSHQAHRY
# T6 sequence (P24863 whole entry partner, the tested form may be a part): as the sequence (P24863 whole entry partner, the tested form may be a part) above
# In short: as §1
# INSR = target: T7, INSR (Homo sapiens, UniProt P06213)
# T7 construct: either as full-length or enzymatically active fragments; purchased ProQinase GmbH (Reaction Biology); host or cells: Sf9 insect cells or E. coli (not specified per kinase)
# In short: as §1
# PIM3 = target: T8, PIM3 (Homo sapiens, UniProt Q86V86)
# T8 construct: either as full-length or enzymatically active fragments; purchased ProQinase GmbH (Reaction Biology)
# In short: as §1
# PKMzeta = target: T9, PKMzeta (Homo sapiens, UniProt Q05513)
# T9 construct: either as full-length or enzymatically active fragments; purchased ProQinase GmbH (Reaction Biology); host or cells: Sf9 insect cells or E. coli
# In short: as §1
# COT = target: T10, COT (Homo sapiens, UniProt P41279)
# T10 construct: either as full-length or enzymatically active fragments; purchased ProQinase GmbH (Reaction Biology)
# In short: as §1
# CDK13/CycK = target: T11, CDK13/CycK (Homo sapiens, UniProt Q14004)
# T11 construct: either as full-length or enzymatically active fragments; purchased ProQinase GmbH (Reaction Biology)
# In short: as §1
# BMPR1A = target: T12, BMPR1A (Homo sapiens, UniProt P36894)
# T12 construct: either as full-length or enzymatically active fragments; purchased ProQinase GmbH (Reaction Biology)
# In short: as §1
# MST2 = target: T13, MST2 (Homo sapiens, UniProt Q13188)
# T13 construct: purchased ProQinase GmbH (Reaction Biology)
# In short: as §1
# ZAK = target: T14, ZAK (Homo sapiens, UniProt Q9NYL2)
# T14 construct: either as full-length or enzymatically active fragments; purchased ProQinase GmbH (Reaction Biology)
# T14 sequence (Q9NYL2 whole entry, the tested form may be a part): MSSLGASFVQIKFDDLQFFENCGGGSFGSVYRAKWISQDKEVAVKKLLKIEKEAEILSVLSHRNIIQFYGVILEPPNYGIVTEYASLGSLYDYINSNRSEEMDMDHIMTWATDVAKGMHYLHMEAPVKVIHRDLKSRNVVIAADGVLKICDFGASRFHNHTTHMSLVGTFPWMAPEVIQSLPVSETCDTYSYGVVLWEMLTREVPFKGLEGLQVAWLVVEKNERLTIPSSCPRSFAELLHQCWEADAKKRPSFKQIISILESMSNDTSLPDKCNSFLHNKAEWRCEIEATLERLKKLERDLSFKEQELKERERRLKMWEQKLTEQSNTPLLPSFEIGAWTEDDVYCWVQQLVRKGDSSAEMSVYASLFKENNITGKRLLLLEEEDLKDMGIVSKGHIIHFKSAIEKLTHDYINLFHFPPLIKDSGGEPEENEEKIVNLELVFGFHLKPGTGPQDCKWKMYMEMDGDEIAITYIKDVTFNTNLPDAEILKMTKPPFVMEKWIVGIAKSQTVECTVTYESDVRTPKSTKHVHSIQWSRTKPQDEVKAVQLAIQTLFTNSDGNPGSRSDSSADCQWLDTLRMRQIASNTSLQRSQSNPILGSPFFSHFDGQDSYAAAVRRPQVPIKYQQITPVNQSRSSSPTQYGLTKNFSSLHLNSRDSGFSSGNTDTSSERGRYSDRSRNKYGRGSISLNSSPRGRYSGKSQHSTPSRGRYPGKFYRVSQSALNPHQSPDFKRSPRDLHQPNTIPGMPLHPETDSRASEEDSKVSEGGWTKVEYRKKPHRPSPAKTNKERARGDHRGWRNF
# In short: as §1
# DYRK2 = target: T15, DYRK2 (Homo sapiens, UniProt Q92630)
# T15 construct: purchased ProQinase GmbH (Reaction Biology); host or cells: Sf9 insect cells or E. coli (not specified per kinase)
# T15 sequence (Q92630 whole entry): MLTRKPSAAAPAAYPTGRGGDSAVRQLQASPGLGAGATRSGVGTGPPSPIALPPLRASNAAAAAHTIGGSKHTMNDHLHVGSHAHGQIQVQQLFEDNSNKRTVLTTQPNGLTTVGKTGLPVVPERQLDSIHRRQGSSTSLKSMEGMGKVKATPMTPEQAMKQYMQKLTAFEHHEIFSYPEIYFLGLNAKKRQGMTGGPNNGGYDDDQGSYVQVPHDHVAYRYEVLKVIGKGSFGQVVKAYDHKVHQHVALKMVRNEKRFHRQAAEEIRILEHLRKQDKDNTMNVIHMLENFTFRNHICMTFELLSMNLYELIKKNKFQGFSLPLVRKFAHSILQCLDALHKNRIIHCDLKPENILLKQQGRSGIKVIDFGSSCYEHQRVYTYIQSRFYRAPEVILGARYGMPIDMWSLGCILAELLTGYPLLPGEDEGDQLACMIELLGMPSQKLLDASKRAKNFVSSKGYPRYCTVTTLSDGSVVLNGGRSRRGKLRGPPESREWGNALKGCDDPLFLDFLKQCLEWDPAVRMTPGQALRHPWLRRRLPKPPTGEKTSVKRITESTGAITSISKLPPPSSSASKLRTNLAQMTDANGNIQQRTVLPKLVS
# In short: as §1
# ACVR1 = target: T16, ACVR1 (Homo sapiens, UniProt Q04771)
# T16 construct: purchased ProQinase GmbH (Reaction Biology)
# T16 sequence (Q04771 21-509): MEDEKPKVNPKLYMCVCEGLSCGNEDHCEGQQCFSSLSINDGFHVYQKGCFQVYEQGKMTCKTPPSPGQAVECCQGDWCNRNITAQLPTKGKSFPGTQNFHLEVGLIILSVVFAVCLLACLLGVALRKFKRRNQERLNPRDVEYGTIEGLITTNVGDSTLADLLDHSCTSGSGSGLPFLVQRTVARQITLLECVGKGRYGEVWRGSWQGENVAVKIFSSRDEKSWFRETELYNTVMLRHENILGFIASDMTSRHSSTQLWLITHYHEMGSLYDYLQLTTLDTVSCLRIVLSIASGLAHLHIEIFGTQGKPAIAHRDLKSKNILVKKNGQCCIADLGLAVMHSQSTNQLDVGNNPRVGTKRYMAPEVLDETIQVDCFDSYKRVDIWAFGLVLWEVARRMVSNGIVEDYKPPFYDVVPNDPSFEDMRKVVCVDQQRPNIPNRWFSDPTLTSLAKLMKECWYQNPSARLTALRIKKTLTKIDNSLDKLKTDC
# In short: as §1
# AuroraA = target: T17, AuroraA (Homo sapiens, UniProt O14965)
# T17 construct: either as full-length or enzymatically active fragments; purchased ProQinase GmbH (Reaction Biology)
# In short: as §1
# CK1gamma2 = target: T18, CK1gamma2 (Homo sapiens, UniProt P78368)
# T18 construct: purchased ProQinase GmbH (Reaction Biology)
# In short: as §1
# ROCK1 = target: T19, ROCK1 (Homo sapiens, UniProt Q13464)
# T19 construct: either as full-length or enzymatically active fragments; purchased ProQinase GmbH (Reaction Biology)
# In short: as §1
# JNK1 = target: T20, JNK1 (Homo sapiens, UniProt P45983)
# T20 construct: either as full-length or enzymatically active fragments; purchased ProQinase GmbH (Reaction Biology)
# In short: as §1
# DCAMKL2 = target: T21, DCAMKL2 (Homo sapiens, UniProt Q8N568)
# T21 construct: purchased ProQinase GmbH (Reaction Biology); host or cells: Sf9 insect cells or E. coli (not specified per kinase)
# T21 sequence (Q8N568 whole entry): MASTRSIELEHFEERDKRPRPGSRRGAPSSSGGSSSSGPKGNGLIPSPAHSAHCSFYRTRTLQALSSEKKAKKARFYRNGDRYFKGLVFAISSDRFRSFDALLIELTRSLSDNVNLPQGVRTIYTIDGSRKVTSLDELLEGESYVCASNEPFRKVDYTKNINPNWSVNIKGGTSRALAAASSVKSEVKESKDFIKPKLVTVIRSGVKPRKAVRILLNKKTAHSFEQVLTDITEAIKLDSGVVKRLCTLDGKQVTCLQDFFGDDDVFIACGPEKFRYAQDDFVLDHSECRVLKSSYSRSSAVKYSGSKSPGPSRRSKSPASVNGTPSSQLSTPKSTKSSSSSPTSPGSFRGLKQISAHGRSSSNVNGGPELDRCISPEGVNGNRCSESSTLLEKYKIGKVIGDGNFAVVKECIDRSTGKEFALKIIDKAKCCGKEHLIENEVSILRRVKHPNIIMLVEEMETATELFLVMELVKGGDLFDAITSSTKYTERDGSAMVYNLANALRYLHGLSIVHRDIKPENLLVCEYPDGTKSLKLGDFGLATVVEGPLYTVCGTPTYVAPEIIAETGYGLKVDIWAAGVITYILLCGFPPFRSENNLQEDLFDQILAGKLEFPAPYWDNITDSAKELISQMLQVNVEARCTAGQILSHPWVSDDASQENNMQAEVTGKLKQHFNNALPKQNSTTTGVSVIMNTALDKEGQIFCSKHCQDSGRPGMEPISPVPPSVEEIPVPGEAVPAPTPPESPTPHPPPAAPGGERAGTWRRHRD
# In short: as §1
# PRK1 = target: T22, PRK1 (Homo sapiens, UniProt Q16512)
# T22 construct: purchased ProQinase GmbH (Reaction Biology)
# In short: as §1
# WEE1 = target: T23, WEE1 (Homo sapiens, UniProt P30291)
# T23 construct: either as full-length or enzymatically active fragments; purchased ProQinase GmbH (Reaction Biology)
# In short: as §1
# MKK7 = target: T24, MKK7 (Homo sapiens, UniProt O14733)
# T24 construct: either as full-length or enzymatically active fragments; purchased ProQinase GmbH (Reaction Biology); host or cells: Sf9 insect cells or E. coli (not specified per kinase)
# T24 sequence (O14733 whole entry, the tested form may be a part): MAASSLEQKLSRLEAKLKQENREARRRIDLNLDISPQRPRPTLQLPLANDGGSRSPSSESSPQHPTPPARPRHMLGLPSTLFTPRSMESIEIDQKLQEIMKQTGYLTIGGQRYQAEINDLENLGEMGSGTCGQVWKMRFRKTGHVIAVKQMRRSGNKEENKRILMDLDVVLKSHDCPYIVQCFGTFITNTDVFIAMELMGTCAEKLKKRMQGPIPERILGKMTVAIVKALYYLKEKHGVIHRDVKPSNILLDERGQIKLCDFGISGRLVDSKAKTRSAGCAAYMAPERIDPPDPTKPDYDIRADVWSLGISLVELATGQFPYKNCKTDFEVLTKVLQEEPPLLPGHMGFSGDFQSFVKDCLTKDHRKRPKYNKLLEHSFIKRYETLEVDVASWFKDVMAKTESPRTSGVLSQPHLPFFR
# In short: as §1
# CAMK2A = target: T25, CAMK2A (Homo sapiens, UniProt Q9UQM7)
# T25 construct: either as full-length or enzymatically active fragments; purchased ProQinase GmbH (Reaction Biology)
# In short: as §1
# DYRK1A = target: T26, DYRK1A (Homo sapiens, UniProt Q13627)
# T26 construct: either as full-length or enzymatically active fragments; purchased ProQinase GmbH (Reaction Biology)
# In short: as §1
# CSK = target: T27, CSK (Homo sapiens, UniProt P41240)
# T27 construct: either as full-length or enzymatically active fragments; purchased ProQinase GmbH (Reaction Biology)
# In short: as §1
# SNK = target: T28, SNK (Homo sapiens, UniProt Q9NYY3)
# T28 construct: either as full-length or enzymatically active fragments; purchased ProQinase GmbH (Reaction Biology); host or cells: Sf9 insect cells or E. coli (not specified per kinase)
# In short: as §1
# CDK6/CycD3 = target: T29, CDK6/CycD3 (Homo sapiens, UniProt Q00534)
# T29 construct: either as full-length or enzymatically active fragments; purchased ProQinase GmbH (Reaction Biology); host or cells: Sf9 insect cells or E. coli
# T29 sequence (Q00534 whole entry, the tested form may be a part): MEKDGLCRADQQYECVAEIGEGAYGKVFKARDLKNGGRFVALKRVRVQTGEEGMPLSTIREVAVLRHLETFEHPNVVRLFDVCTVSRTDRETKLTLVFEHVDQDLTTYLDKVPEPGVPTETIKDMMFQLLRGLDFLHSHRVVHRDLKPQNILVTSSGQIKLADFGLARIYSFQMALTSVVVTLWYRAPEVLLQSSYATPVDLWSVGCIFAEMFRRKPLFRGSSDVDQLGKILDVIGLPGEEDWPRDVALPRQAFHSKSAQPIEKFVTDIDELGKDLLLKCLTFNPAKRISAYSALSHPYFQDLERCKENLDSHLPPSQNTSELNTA
# T29 sequence (P30281 whole entry partner, the tested form may be a part): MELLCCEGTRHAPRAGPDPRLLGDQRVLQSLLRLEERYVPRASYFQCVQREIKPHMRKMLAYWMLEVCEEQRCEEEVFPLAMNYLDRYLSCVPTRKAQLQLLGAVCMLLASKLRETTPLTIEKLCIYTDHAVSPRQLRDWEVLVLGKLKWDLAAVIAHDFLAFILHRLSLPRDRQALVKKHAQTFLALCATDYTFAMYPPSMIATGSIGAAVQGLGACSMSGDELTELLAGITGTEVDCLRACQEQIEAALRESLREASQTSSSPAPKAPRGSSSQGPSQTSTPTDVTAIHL
# In short: as §1
# CK2alpha1 = target: T30, CK2alpha1 (Homo sapiens, UniProt P68400)
# T30 construct: either as full-length or enzymatically active fragments; purchased ProQinase GmbH (Reaction Biology)
# In short: as §1
compound,measurement,setting,value
"C=CC(=O)Nc1ccc(C(=O)N2CC[C@@H](Nc3ncc(C#N)cn3)C2)cc1 [Compound 4, (R)-N-(4-(3-((5-cyanopyrimidin-2-yl)amino)pyrrolidine-1-carbonyl)phenyl)acrylamide]",inhibition at 1 µM,MERTK,-8%
same,inhibition at 1 µM,ROCK2,19%
same,inhibition at 1 µM,CDK5/p35NCK,23%
same,inhibition at 1 µM,CDK8/CycC,3%
same,inhibition at 1 µM,SRMS,-2%
same,inhibition at 1 µM,CDK19/CycC,10%
same,inhibition at 1 µM,INSR,8%
same,inhibition at 1 µM,PIM3,4%
same,inhibition at 1 µM,PKMzeta,12%
same,inhibition at 1 µM,COT,6%
same,inhibition at 1 µM,CDK13/CycK,87%
same,inhibition at 1 µM,BMPR1A,2%
same,inhibition at 1 µM,MST2,0%
same,inhibition at 1 µM,ZAK,-4%
same,inhibition at 1 µM,DYRK2,1%
same,inhibition at 1 µM,ACVR1,-1%
same,inhibition at 1 µM,AuroraA,5%
same,inhibition at 1 µM,CK1gamma2,-1%
same,inhibition at 1 µM,ROCK1,15%
same,inhibition at 1 µM,JNK1,3%
same,inhibition at 1 µM,DCAMKL2,0%
same,inhibition at 1 µM,PRK1,-1%
same,inhibition at 1 µM,WEE1,-5%
same,inhibition at 1 µM,MKK7,11%
same,inhibition at 1 µM,CAMK2A,-9%
same,inhibition at 1 µM,DYRK1A,7%
same,inhibition at 1 µM,CSK,7%
same,inhibition at 1 µM,SNK,9%
same,inhibition at 1 µM,CDK6/CycD3,14%
same,inhibition at 1 µM,CK2alpha1,-4%

# — patent US20230074545A1, “TREATMENT OF CANCER WITH CDK12/13 INHIBITORS” (Kinnate Biopharma Inc., priority 2019, published 2023)
